These results are taken from patent publication US11299487B2, “Compounds and compositions as modulators of TLR signaling” (Neuropore Therapies, Inc., priority 2019, dated 2022).

Assay type in all cases: cell-based
Assay [1] concerns the target T1, human TLR2 (Homo sapiens, UniProt O60603).
T1 construct: host or cells: HEK-Blue hTLR2 (HEK-293)
Nature of the assay: HEK-Blue hTLR2 antagonism assay (SEAP reporter) with agonist Pam3CSK4 (TLR1/2 agonist). The settings on record: Table A; HEK-Blue hTLR2 cells, ~3×EC50 Pam3CSK4, 18 h, SEAP OD 655 nm, 8-point dilutions.

The target in the next assay is T2, human TLR9 (Homo sapiens, UniProt Q9NR96).
T2 construct: host or cells: HEK-Blue hTLR9 (HEK-293)
T2 sequence (Q9NR96 26-1032): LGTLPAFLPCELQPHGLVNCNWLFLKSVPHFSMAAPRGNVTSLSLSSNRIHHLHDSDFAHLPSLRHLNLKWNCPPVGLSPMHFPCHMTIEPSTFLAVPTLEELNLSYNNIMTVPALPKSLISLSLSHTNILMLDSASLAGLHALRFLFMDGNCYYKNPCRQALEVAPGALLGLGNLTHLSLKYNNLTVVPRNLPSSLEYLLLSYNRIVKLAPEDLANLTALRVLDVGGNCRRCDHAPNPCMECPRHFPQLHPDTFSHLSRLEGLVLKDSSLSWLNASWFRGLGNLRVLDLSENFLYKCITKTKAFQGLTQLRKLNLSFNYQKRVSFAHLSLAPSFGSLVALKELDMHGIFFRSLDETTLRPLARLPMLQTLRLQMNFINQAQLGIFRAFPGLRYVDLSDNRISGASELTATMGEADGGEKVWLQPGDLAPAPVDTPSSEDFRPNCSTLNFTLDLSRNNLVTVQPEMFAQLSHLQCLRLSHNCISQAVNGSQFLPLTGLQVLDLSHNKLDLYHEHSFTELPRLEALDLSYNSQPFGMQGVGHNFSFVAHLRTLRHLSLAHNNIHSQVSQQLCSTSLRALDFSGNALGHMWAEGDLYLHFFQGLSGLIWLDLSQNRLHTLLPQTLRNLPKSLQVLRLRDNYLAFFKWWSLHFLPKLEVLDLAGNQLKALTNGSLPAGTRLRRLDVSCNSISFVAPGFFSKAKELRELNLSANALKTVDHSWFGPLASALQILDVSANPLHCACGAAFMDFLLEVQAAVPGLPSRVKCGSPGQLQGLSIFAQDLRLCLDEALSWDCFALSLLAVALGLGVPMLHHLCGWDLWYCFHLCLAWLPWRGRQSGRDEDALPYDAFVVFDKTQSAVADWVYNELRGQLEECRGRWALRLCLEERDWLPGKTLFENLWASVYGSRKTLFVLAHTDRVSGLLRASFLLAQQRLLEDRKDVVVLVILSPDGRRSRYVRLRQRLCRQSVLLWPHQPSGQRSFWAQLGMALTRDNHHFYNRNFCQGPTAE
The experiment in a line: HEK-Blue hTLR9 assay (SEAP reporter) with agonist ODN 2006. The settings on record: Table A; HEK-Blue hTLR9 cells, ~3×EC50 ODN 2006, 18 h; exact values 8-point dilutions, approximate (~ or <) 4-point dilutions; read-out: ~IC50 (μM) with ODN2006. The method, then: Synthetic ODNs (ODN 2006 (ODN7909), class B CpG oligonucleotide, TLR9 agonist) was obtained from InvivoGen and was dissolved in endotoxin-free water to a concentration 500 μM, vortexed until complete solubilization, and stored in aliquots at −20° C. Prior to addition to cells, an aliquot of the dissolved ligand was vortexed shortly and then was diluted in medium to 50 μM. The EC50 of the agonist for each assay run was determined by using 3-fold dilutions from the starting concentration 10 μM.
Test compounds were solubilized fresh to 10-20 mM stocks in DMSO and sonicated for 5-10 minutes in a water bath sonicator. Serial dilutions were prepared in DMSO, and then diluted in medium. The final concentration of DMSO used in the assay was 1%.
HEK-Blue hTLR9 reporter cells (InvivoGen) are HEK-293 cells stably expressing both the human TLR9 gene and a secreted embryonic alkaline phosphatase (SEAP) reporter construct downstream of NFκB promotor sites. HEK-Blue hTLR9 cells were cultured according to manufacturer's protocol using Dulbecco's Modified Eagle Medium (DMEM; Gibco) containing 1× GlutaMax (Gibco), 10% heat-inactivated Fetal Bovine Serum (Gibco), Pen-Strep (50 U/mL penicillin, 50 μg/mL streptomycin, Gibco), 100 μg/mL Normocin (InvivoGen), and the selective antibiotics, 10 μg/mL Blasticidin (InvivoGen), and 100 μg/mL Zeocin (InvivoGen). Quanti-Blue reagent (InvivoGen) for detection and quantification of secreted alkaline phosphatase was dissolved in 100 mL of endotoxin-free water, warmed to 37° C. for 30 minutes and then filtered using a 0.2 μm membrane.
On day 1, 50 μL of each test compound dilution in duplicates or a vehicle control was added to each well of a 96-well plate followed by addition of 150 μL of HEK-Blue hTLR9 cell suspension (1×10^5 cells/well) and incubated at 37° C./5% CO2 for 2 h. Next, 50 μL of an approximate 3×EC50 concentration of TLR9 agonist, ODN 2006, was added to the wells containing test compounds or the vehicle control. The plates were then incubated at 37° C./5% CO2 for 18 h. For each assay run, vehicle-treated HEK-Blue hTLR9 cells were treated with serial dilutions of agonist to determine EC50 values for the respective run.
On day 2, secreted alkaline phosphatase (SEAP) activity was detected in cell culture supernatants. In brief, 30 μL was collected from each well and transferred to a 96-well plate. Next, 200 μL of Quanti-Blue detection reagent was added to each well. Plates were incubated at 37° C. for 60 min. and SEAP activity was assessed by spectrophotometer OD reading at 655 nm. Table A and Table B show the activities of the compounds tested in HEK-Blue hTLR9 cells against ODN 2006. The activities of the compounds against ODN 2006 are presented as IC50 values which were defined as concentrations of the compounds where percent inhibition of the signal induced by agonist is equal to 50. Exact IC50 values were calculated based on 8-point dilutions for each compound. Approximate IC50 values (˜ or <) were calculated based on 4-point dilutions for each compound.

Assay [2] has as its target T1, human TLR2. Nature of the assay: HEK-Blue hTLR2 antagonism assay (SEAP reporter) with agonist Pam2CSK4 (TLR2/6 agonist). The settings on record: Table A; HEK-Blue hTLR2 cells, ~3×EC50 Pam2CSK4, 18 h, SEAP OD 655 nm, 8-point dilutions.

T1 sequence (O60603 21-784): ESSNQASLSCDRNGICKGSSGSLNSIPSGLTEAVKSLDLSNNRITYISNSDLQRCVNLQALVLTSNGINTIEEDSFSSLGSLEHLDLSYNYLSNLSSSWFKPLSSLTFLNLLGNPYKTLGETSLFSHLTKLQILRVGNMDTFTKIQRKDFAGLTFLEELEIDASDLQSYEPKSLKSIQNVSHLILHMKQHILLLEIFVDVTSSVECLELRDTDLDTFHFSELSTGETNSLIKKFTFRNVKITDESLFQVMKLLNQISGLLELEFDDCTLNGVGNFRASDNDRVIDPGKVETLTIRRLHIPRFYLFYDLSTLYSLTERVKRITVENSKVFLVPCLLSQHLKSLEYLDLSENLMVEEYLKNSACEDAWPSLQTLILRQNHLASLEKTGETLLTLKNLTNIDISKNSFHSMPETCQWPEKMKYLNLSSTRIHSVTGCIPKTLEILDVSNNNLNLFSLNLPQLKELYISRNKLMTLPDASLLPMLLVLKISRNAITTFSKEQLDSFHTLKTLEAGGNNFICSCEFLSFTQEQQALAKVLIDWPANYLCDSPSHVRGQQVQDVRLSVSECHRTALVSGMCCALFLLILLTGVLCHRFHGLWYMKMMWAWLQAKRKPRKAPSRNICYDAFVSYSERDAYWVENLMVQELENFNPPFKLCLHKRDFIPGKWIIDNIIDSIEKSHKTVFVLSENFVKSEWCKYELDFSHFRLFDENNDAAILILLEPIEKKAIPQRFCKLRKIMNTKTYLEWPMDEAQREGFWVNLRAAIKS

With `COc1cc(-c2cnn(-c3ccccc3)c2)cc(C=O)c1O` [Compound A1, 2-hydroxy-3-methoxy-5-(1-phenyl-1H-pyrazol-4-yl)benzaldehyde], the half-maximal inhibitory concentration (IC50) (commonly the concentration that inhibits the measured activity by half) at human TLR2 [1] was 0.9 µM; on human TLR9, ~2 µM; on human TLR2 [2] it was 2.2 µM.
For `COc1cc(-c2cnn(CCN3CCOCC3)c2)cc(C=O)c1O` [Compound A2, 2-hydroxy-3-methoxy-5-(1-(2-morpholinoethyl)-1H-pyrazol-4-yl)benzaldehyde], the IC50 on human TLR2 [1] was > 100 µM; at human TLR9 it was > 33 µM; on human TLR2 [2] it was > 100 µM.
With `COCCCn1cc(-c2cc(C=O)c(O)c(OC)c2)cn1` [Compound A7, 2-hydroxy-3-methoxy-5-(1-(3-methoxypropyl)-1H-pyrazol-4-yl)benzaldehyde], the half-maximal inhibitory concentration (IC50) on human TLR2 [1] was 42.3 µM; at human TLR9 it was > 33 µM; at human TLR2 [2], 36.8 µM.
The matching figures for `COc1cc(-c2cnn(Cc3ccccn3)c2)cc(C=O)c1O` [Compound A8, 2-hydroxy-3-methoxy-5-(1-(pyridin-2-ylmethyl)-1H-pyrazol-4-yl)benzaldehyde]: > 100 µM, > 33 µM and 85.5 µM.
The matching figures for `Cc1cc(-c2cnn(-c3ccccc3)c2)cc(C#N)c1O` [Compound A12, 2-hydroxy-3-methyl-5-(1-phenyl-1H-pyrazol-4-yl)benzonitrile]: > 100 µM, > 33 µM and > 100 µM.
Turning to `Oc1cc(-c2cnn(-c3ccccc3)c2)cc(F)c1F` [Compound A13, 2,3-difluoro-5-(1-phenyl-1H-pyrazol-4-yl)phenol], the half-maximal inhibitory concentration (IC50) at human TLR2 [1] was 39.7 µM; on human TLR9, > 33 µM; on human TLR2 [2] it was 45.7 µM.
The matching figures for `Cc1cc(-c2cnn(-c3ccccc3)c2)cc(O)c1F` [Compound A14, 2-fluoro-3-methyl-5-(1-phenyl-1H-pyrazol-4-yl)phenol]: 42.6 µM, > 33 µM and 42.2 µM.
The matching figures for `Oc1c(F)cc(-c2cnn(-c3ccccc3)c2)cc1Cl` [Compound A15, 2-chloro-6-fluoro-4-(1-phenyl-1H-pyrazol-4-yl)phenol]: > 100 µM, > 33 µM and > 100 µM.
The matching figures for `COc1cc(-c2cnn(-c3ccccc3)c2)cc(O)c1F` [Compound A16, 2-fluoro-3-methoxy-5-(1-phenyl-1H-pyrazol-4-yl)phenol]: > 100 µM, > 33 µM and > 100 µM.
On to `O=Cc1cc(-c2cnn(-c3ccc(N4CCCC4)cc3)c2)cc(F)c1O` [Compound A19, 3-fluoro-2-hydroxy-5-(1-(4-(pyrrolidin-1-yl)phenyl)-1H-pyrazol-4-yl)benzaldehyde], for which the IC50 on human TLR2 [1] was 0.5 µM; at human TLR9, < 1.2 µM; at human TLR2 [2], 0.5 µM.
With `O=Cc1cc(-c2cnn(-c3cccc(N4CCCC4)c3)c2)cc(F)c1O` [Compound A22, 3-fluoro-2-hydroxy-5-(1-(3-(pyrrolidin-1-yl)phenyl)-1H-pyrazol-4-yl)benzaldehyde], the results for the IC50 at human TLR2 [1], at human TLR9 and at human TLR2 [2] were 0.9 µM, > 10 µM and 0.9 µM, respectively.
Turning to `COc1cc(-c2ccn(-c3ccccc3)n2)cc(C=O)c1O` [Compound A25, 2-hydroxy-3-methoxy-5-(1-phenyl-1H-pyrazol-3-yl)benzaldehyde], the half-maximal inhibitory concentration (IC50) at human TLR2 [1] is 1.2 µM; at human TLR9, ~3 µM; on human TLR2 [2] it was 1.9 µM.
The matching figures for `O=Cc1cc(-c2ccn(-c3ccccc3)n2)cc(F)c1O` [Compound A26, 3-fluoro-2-hydroxy-5-(1-phenyl-1H-pyrazol-3-yl)benzaldehyde]: 2.7 µM, ~3 µM and 2.9 µM.
The matching figures for `O=Cc1cc(-c2ccn(-c3ccc(N4CCCC4)cc3)n2)cc(F)c1O` [Compound A27, 3-fluoro-2-hydroxy-5-(1-(4-(pyrrolidin-1-yl)phenyl)-1H-pyrazol-3-yl)benzaldehyde]: 0.8 µM, < 1.2 µM and 0.9 µM.
For the molecule `CN1CCN(/N=C/c2cc(-c3ccn(-c4ccccc4)n3)cc(F)c2O)CC1` [Compound A33, (E)-2-fluoro-6-(((4-methylpiperazin-1-yl)imino)methyl)-4-(1-phenyl-1H-pyrazol-3-yl)phenol], the figures for the concentration for half-maximal inhibition (IC50) at human TLR2 [1], at human TLR9 and at human TLR2 [2] were 3.6 µM, ~4 µM and 4 µM, respectively.
The matching figures for `O=Cc1cc(-n2cc(-c3ccc(N4CCCC4)cc3)nn2)cc(F)c1O` [Compound A42, 3-fluoro-2-hydroxy-5-(4-(4-(pyrrolidin-1-yl)phenyl)-1H-1,2,3-triazol-1-yl)benzaldehyde]: 0.3 µM, 0.1 µM and 0.4 µM.
The matching figures for `O=Cc1cc(-c2cn(-c3ccc(N4CCCC4)cc3)nn2)cc(F)c1O` [Compound A43, 3-fluoro-2-hydroxy-5-(1-(4-(pyrrolidin-1-yl)phenyl)-1H-1,2,3-triazol-4-yl)benzaldehyde]: 1.1 µM, < 1.2 µM and 1.1 µM.
As to `O=Cc1cc(-n2cc(-c3cccc(N4CCCC4)c3)nn2)cc(F)c1O` [Compound A44, 3-fluoro-2-hydroxy-5-(4-(3-(pyrrolidin-1-yl)phenyl)-1H-1,2,3-triazol-1-yl)benzaldehyde], the IC50 is 0.7 µM at human TLR2 [1], ~1.2 µM at human TLR9 and 1 µM at human TLR2 [2].
The matching figures for `O=Cc1cc(-c2cn(-c3ccc(N4CCCC4)cc3)cn2)cc(F)c1O` [Compound A47, 3-fluoro-2-hydroxy-5-(1-(4-(pyrrolidin-1-yl)phenyl)-1H-imidazol-4-yl)benzaldehyde]: 1.3 µM, < 1.2 µM and 2.3 µM.
The matching figures for `O=Cc1cc(-c2cc(-c3ccc(N4CCCC4)cc3)cs2)cc(F)c1O` [Compound A51, 3-fluoro-2-hydroxy-5-(4-(4-(pyrrolidin-1-yl)phenyl)thiophen-2-yl)benzaldehyde]: 0.7 µM, < 1.2 µM and 1.7 µM.
